Source: ChEMBL document CHEMBL4002562, “Terminal functionalized thiourea-containing dipeptides as multidrug-resistance reversers that target 20S proteasome and cell proliferation” (Eur J Med Chem, 2017)

Key:
[1] = molecular target: T1, Proteasome Macropain subunit MB1 (Homo sapiens, UniProt P28074); assay: Inhibition of chymotrypsin-like activity of human 20S proteasome using Suc-LLVY-AMC as substrate by fluorometric method
T1 sequence (P28074 whole entry): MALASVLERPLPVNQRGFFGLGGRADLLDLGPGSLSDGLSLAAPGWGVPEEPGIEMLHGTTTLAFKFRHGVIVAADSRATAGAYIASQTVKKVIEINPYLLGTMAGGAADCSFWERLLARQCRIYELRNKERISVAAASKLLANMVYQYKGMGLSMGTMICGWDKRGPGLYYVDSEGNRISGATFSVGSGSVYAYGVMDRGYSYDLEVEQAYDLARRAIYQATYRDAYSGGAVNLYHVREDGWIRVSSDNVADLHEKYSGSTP

NCI-H460 [2] = assay: Resistant factor, ratio of IC50 for human doxorubicin-resistant NCI-H460 cells to IC50 for human NCI-H460 cells; type: functional
L02 = assay: Cytotoxicity against human HL-7702 cells after 48 hrs by MTT assay; type: cell-based; settings: L02, 48 h
NCI-H460 [3] = assay: cells; settings: Homo sapiens, NCI-H460, 48 h
NCI-H460 [4] = assay: Cytotoxicity against human NCI-H460 cells after 48 hrs by MTT assay; settings: NCI-H460, 48 h
HepG2 [5] = assay: Cytotoxicity against human doxorubicin-resistant HepG2 cells after 48 hrs by MTT assay; type: functional, cell-based; settings: HepG2, 48 h
HepG2 [6] = assay: Resistant factor, ratio of IC50 for human doxorubicin-resistant HepG2 cells to IC50 for human HepG2 cells; type: functional
HepG2 [7] = assay: cells; settings: Homo sapiens, HepG2, 48 h
Description: Cytotoxicity against human HepG2 cells after 48 hrs by MTT assay

NCI-H460 [8] = assay: Induction of apoptosis in human NCI-H460 cells assessed as viable cells at 4 uM after 24 hrs in presence of p-gp inhibitor LY335979 by Annexin V-PE/7-AAD staining-based flow cytometric analysis (reference value: 83%); type: functional; settings: NCI-H460, 24 h, read-out: Activity
NCI-H460 [9] = assay: Induction of apoptosis in doxorubicin-resistant human NCI-H460 cells assessed as late apoptotic/necrotic cells at 4 uM after 24 hrs in presence of p-gp inhibitor LY335979 by Annexin V-PE/7-AAD staining-based flow cytometric analysis (reference value: 2.87%); type: functional
NCI-H460 [10] = assay: Induction of apoptosis in human NCI-H460 cells assessed as late apoptotic/necrotic cells at 4 uM after 24 hrs in presence of p-gp inhibitor LY335979 by Annexin V-PE/7-AAD staining-based flow cytometric analysis (reference value: 5.73%); type: functional
NCI-H460 [11] = assay: Induction of apoptosis in human NCI-H460 cells assessed as early apoptotic cells at 4 uM after 24 hrs by Annexin V-PE/7-AAD staining-based flow cytometric analysis (reference value: 1.33%); type: functional
[12] = molecular target: Proteasome Macropain subunit (Homo sapiens, UniProt P49721); assay: Inhibition of trypsin-like activity of human 20S proteasome using Bz-VGR-AMC as substrate by fluorometric method
Chain of Proteasome Macropain subunit (P49721 whole entry): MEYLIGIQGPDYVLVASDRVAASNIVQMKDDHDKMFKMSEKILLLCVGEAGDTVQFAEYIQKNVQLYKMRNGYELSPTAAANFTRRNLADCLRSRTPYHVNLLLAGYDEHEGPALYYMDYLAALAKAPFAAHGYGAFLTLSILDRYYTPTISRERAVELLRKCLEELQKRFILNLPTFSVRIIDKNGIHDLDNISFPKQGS

NCI-H460 [13] = assay: Induction of apoptosis in human NCI-H460 cells assessed as early apoptotic cells at 4 uM after 24 hrs in presence of p-gp inhibitor LY335979 by Annexin V-PE/7-AAD staining-based flow cytometric analysis (reference value: 1.33%); type: functional
NCI-H460 [14] = assay: Induction of apoptosis in doxorubicin-resistant human NCI-H460 cells assessed as viable cells at 4 uM after 24 hrs in presence of p-gp inhibitor LY335979 by Annexin V-PE/7-AAD staining-based flow cytometric analysis (reference value: 95.2%); type: functional; settings: NCI-H460, 24 h, read-out: Activity
NCI-H460 [15] = assay: Induction of apoptosis in doxorubicin-resistant human NCI-H460 cells assessed as viable cells at 4 uM after 24 hrs by Annexin V-PE/7-AAD staining-based flow cytometric analysis (reference value: 95.2%); type: functional; settings: NCI-H460, 24 h, read-out: Activity
NCI-H460 [16] = assay: Induction of apoptosis in doxorubicin-resistant human NCI-H460 cells assessed as early apoptotic cells at 4 uM after 24 hrs in presence of p-gp inhibitor LY335979 by Annexin V-PE/7-AAD staining-based flow cytometric analysis (reference value: 1.40%); type: functional
NCI-H460 [17] = assay: Induction of apoptosis in doxorubicin-resistant human NCI-H460 cells assessed as late apoptotic/necrotic cells at 4 uM after 24 hrs by Annexin V-PE/7-AAD staining-based flow cytometric analysis (reference value: 2.87%); type: functional
NCI-H460 [18] = assay: Induction of apoptosis in doxorubicin-resistant human NCI-H460 cells assessed as damaged cells at 4 uM after 24 hrs in presence of p-gp inhibitor LY335979 by Annexin V-PE/7-AAD staining-based flow cytometric analysis (reference value: 0.493%); type: functional
NCI-H460 [19] = assay: Induction of apoptosis in human NCI-H460 cells assessed as damaged cells at 4 uM after 24 hrs by Annexin V-PE/7-AAD staining-based flow cytometric analysis (reference value: 9.98%); type: functional
NCI-H460 [20] = assay: Induction of apoptosis in human NCI-H460 cells assessed as viable cells at 4 uM after 24 hrs by Annexin V-PE/7-AAD staining-based flow cytometric analysis (reference value: 83%); type: functional; settings: NCI-H460, 24 h, read-out: Activity
NCI-H460 [21] = assay: Induction of apoptosis in human NCI-H460 cells assessed as damaged cells at 4 uM after 24 hrs in presence of p-gp inhibitor LY335979 by Annexin V-PE/7-AAD staining-based flow cytometric analysis (reference value: 9.98%); type: functional
NCI-H460 [22] = assay: Induction of apoptosis in doxorubicin-resistant human NCI-H460 cells assessed as early apoptotic cells at 4 uM after 24 hrs by Annexin V-PE/7-AAD staining-based flow cytometric analysis (reference value: 1.40%); type: functional
NCI-H460 [23] = assay: Induction of apoptosis in doxorubicin-resistant human NCI-H460 cells assessed as damaged cells at 4 uM after 24 hrs by Annexin V-PE/7-AAD staining-based flow cytometric analysis (reference value: 0.493%); type: functional
NCI-H460 [24] = assay: Induction of apoptosis in human NCI-H460 cells assessed as late apoptotic/necrotic cells at 4 uM after 24 hrs by Annexin V-PE/7-AAD staining-based flow cytometric analysis (reference value: 5.73%); type: functional

Row | Structure (SMILES) | IC50 [1] | IC50 (NCI-H460 [3]) | IC50 (HepG2 [7]) | Ratio IC50 (NCI-H460 [2]) | IC50 (L02) | IC50 (NCI-H460 [4]) | IC50 (HepG2 [5]) | Ratio IC50 (HepG2 [6]) | other results
1 | CC[C@H](C)[C@H](/N=C(/Nc1cccc(C(F)(F)F)c1)SC)C(=O)N[C@H](Cc1ccccc1)C(=O)Nc1ccc(Cl)c(Cl)c1 | 22.2 µM |  |  |  |  |  |  |  | 
2 | CC[C@H](C)[C@H](NC(=S)Nc1cccc([N+](=O)[O-])c1)C(=O)N[C@H](Cc1ccccc1)C(=O)Nc1cccc(OC)c1 | 22.3 µM |  |  |  |  |  |  |  | 
3 | CC[C@H](C)[C@H](/N=C(/Nc1cccc([N+](=O)[O-])c1)SC)C(=O)N[C@H](Cc1ccccc1)C(=O)Nc1ccc(C)c(C)c1 | > 50 µM |  |  |  |  |  |  |  | 
4 | CC[C@H](C)[C@H](NC(=S)Nc1cccc([N+](=O)[O-])c1)C(=O)N[C@H](Cc1ccccc1)C(=O)Nc1cccc(Cl)c1 | 5.84 µM | 31.7 µM | 20.7 µM | 2.32 | > 50 µM | 13.6 µM | > 50 µM |  | 
5 | CC[C@H](C)[C@H](NC(=S)Nc1cccc(C(F)(F)F)c1)C(=O)N[C@H](Cc1ccccc1)C(=O)Nc1cccc(C(F)(F)F)c1 | 19.6 µM |  |  |  |  |  |  |  | 
6 | CC[C@H](C)[C@H](NC(=S)Nc1cccc([N+](=O)[O-])c1)C(=O)N[C@H](Cc1ccccc1)C(=O)Nc1ccc(Cl)c(Cl)c1 | 1.36 µM | 32.3 µM | 13.3 µM | 2.18 | > 50 µM | 14.8 µM | 37.4 µM | 2.82 | 
7 | CC[C@H](C)[C@H](NC(=S)Nc1cccc([N+](=O)[O-])c1)C(=O)N[C@H](Cc1ccccc1)C(=O)Nc1cccc(C(F)(F)F)c1 | 0.0086 µM | 6.74 µM | 4.8 µM | 3.96 | > 50 µM | 1.7 µM | 10.2 µM | 2.12 | viability at 4 µM (NCI-H460 [8]): 57%; Activity (NCI-H460 [9]): 29.9%; Activity (NCI-H460 [10]): 24.2%; Activity (NCI-H460 [11]): 13.3%; IC50 [12]: Not Active; Activity (NCI-H460 [13]): 4.86%; viability at 4 µM (NCI-H460 [14]): 32.5%; viability at 4 µM (NCI-H460 [15]): 80.8%; Activity (NCI-H460 [16]): 31.9%; Activity (NCI-H460 [17]): 5.96%; Activity (NCI-H460 [18]): 5.72%; Activity (NCI-H460 [19]): 4.72%; viability at 4 µM (NCI-H460 [20]): 74.2%; Activity (NCI-H460 [21]): 13.9%; Activity (NCI-H460 [22]): 11.4%; Activity (NCI-H460 [23]): 1.9%; Activity (NCI-H460 [24]): 7.76%
8 | CC[C@H](C)[C@H](NC(=S)Nc1ccc(C(F)(F)F)cc1)C(=O)N[C@H](Cc1ccccc1)C(=O)Nc1cccc(Br)c1 | 0.022 µM | 11.2 µM | 18.6 µM | 1.58 | > 50 µM | 7.13 µM | 27.4 µM | 1.47 | 
9 | CC[C@H](C)[C@H](NC(=S)Nc1cccc([N+](=O)[O-])c1)C(=O)N[C@H](Cc1ccccc1)C(=O)Nc1cccc(F)c1 | 3.57 µM | 28.6 µM | 18 µM | 2.33 | > 50 µM | 12.3 µM | 36.8 µM | 2.04 | 
10 | CC[C@H](C)[C@H](NC(=S)Nc1cccc(C(F)(F)F)c1)C(=O)N[C@H](Cc1ccccc1)C(=O)Nc1ccc(Cl)c(Cl)c1 | 0.017 µM | 15.5 µM | 12.1 µM | 2.52 | > 50 µM | 6.14 µM | 29.6 µM | 2.44 | IC50 [12]: Not Active
11 | CC[C@H](C)[C@H](NC(=S)Nc1cccc([N+](=O)[O-])c1)C(=O)N[C@H](Cc1ccccc1)C(=O)Nc1ccc(F)cc1 | 1.97 µM | 42.4 µM | 17.5 µM | 2.09 | > 50 µM | 20.2 µM | 48.5 µM | 2.78 | 

Now from value to compound, other results behind:

Row | IC50 [1] | IC50 (NCI-H460 [3]) | IC50 (HepG2 [7]) | Structure (SMILES) | Ratio IC50 (NCI-H460 [2]) | IC50 (L02) | IC50 (NCI-H460 [4]) | IC50 (HepG2 [5]) | Ratio IC50 (HepG2 [6]) | other results
12 | > 50 µM |  |  | CC[C@H](C)[C@H](NC(=S)Nc1ccc(Br)cc1)C(=O)N[C@H](Cc1ccccc1)C(=O)Nc1ccc(C)c(Cl)c1 |  |  |  |  |  | 
13 | 2.71 µM | 35.2 µM | 17.4 µM | CC[C@H](C)[C@H](NC(=S)Nc1cccc([N+](=O)[O-])c1)C(=O)N[C@H](Cc1ccccc1)C(=O)Nc1ccc(Br)cc1 | 2.18 | > 50 µM | 16.2 µM | 48.2 µM | 2.76 | 
14 | 8.83 µM | > 50 µM | 19.3 µM | CC[C@H](C)[C@H](/N=C(/Nc1cccc(C(F)(F)F)c1)SC)C(=O)N[C@H](Cc1ccccc1)C(=O)Nc1cccc(C(F)(F)F)c1 |  | > 50 µM | 20.3 µM | 49.2 µM | 2.55 | IC50 [12]: Not Active
15 | > 50 µM |  |  | CC[C@H](C)[C@H](NC(=S)Nc1cccc([N+](=O)[O-])c1)C(=O)N[C@H](Cc1ccccc1)C(=O)Nc1ccc(C)c(C)c1 |  |  |  |  |  | 
16 | 29 µM |  |  | CC[C@H](C)[C@H](NC(=S)Nc1cccc([N+](=O)[O-])c1)C(=O)N[C@H](Cc1ccccc1)C(=O)Nc1ccc(OC)cc1 |  |  |  |  |  | 
17 | > 50 µM |  |  | CC[C@H](C)[C@H](NC(=S)Nc1cccc([N+](=O)[O-])c1)C(=O)N[C@H](Cc1ccccc1)C(=O)Nc1ccc(C)c(Cl)c1 |  |  |  |  |  | 
18 |  |  | 6.91 µM | COc1cccc2c1C(=O)c1c(O)c3c(c(O)c1C2=O)C[C@@](O)(C(=O)CO)C[C@@H]3O[C@H]1C[C@H](N)[C@H](O)[C@H](C)O1 [DOXORUBICIN] |  | 12.2 µM |  | > 50 µM |  | 
